Earlier results as cited in patent US20100322892A1, “PESTICIDE COMPOSITIONS AND APPLICATORS” (BASF CORPORATION, priority 2009, published 2010).

Columns and labels:
termites = conditions: in vivo
ants = conditions: in vivo

## N#Cc1nn(-c2c(Cl)cc(C(F)(F)F)cc2Cl)c(N)c1[S+]([O-])C(F)(F)F (racemic) [fipronil, (±)-5-amino-1-(2,6-dichloro-α,α,α-trifluoro-p-tolyl)-4-trifluoromethylsulfinylpyrazole-3-carbonitrile]
termites
  Dose toxic to termites: 2 nanograms per termite
ants
  Dose toxic to ants: about 1 nanogram per ant
